# Measured values published in PMC2775898 (The EMBO Journal, 2009).
# Where a SMILES comes first, the peptide text is derived from it. The star is where a group is joined. Biotin = O=C1N[C@H]2[C@H](CS[C@H]2CCCCC(=O)*)N1
# Molecular target: T1, Tiam2 PHCCEx domain (Mus musculus, UniProt Q6ZPF3)
# T1 sequence (Q6ZPF3 500-757): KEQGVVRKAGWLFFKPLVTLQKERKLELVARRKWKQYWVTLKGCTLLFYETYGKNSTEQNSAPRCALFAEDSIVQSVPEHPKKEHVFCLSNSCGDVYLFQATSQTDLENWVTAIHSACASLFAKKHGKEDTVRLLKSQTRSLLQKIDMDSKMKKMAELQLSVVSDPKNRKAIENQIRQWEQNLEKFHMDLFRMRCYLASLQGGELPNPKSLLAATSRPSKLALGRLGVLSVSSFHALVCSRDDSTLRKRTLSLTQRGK
# Assay: Equilibrium SPR binding of biotinylated peptides to the Tiam2 PHCCEx domain
# Conditions: N-terminal biotinylated peptide immobilized
row,Binding to the Tiam2 PHCCEx domain (in words),SMILES
1,weaker binding,CC[C@H](C)[C@H](NC(=O)CNC(=O)[C@H](CC(C)C)NC(=O)[C@H](CCC(=O)O)NC(=O)CNC(=O)[C@@H]1CCCN1C(=O)[C@H](CCC(=O)O)NC(=O)[C@H](C)NC(=O)[C@H](CCC(=O)O)NC(=O)[C@H](CCCNC(=N)N)NC(=O)CCCC[C@@H]1SC[C@@H]2NC(=O)N[C@@H]21)C(=O)N[C@@H](C)C(=O)N[C@@H](CC(C)C)C(=O)N[C@@H](CCCNC(=N)N)C(=O)NCC(=O)NCC(=O)NCC(=O)N[C@H](C(=O)N[C@@H](C)C(=O)N[C@@H](CC(=O)O)C(=O)O)[C@@H](C)O [ephrin B3 286–303] (Biotin-REAEPGELGIALRGGGTAD-OH; C-terminus assumed)
2,in the micromolar range,CC[C@H](C)[C@H](NC(=O)[C@H](CC(=O)O)NC(=O)[C@H](CO)NC(=O)[C@@H]1CCCN1C(=O)[C@H](CCC(=O)O)NC(=O)[C@@H](NC(=O)CNC(=O)[C@H](C)NC(=O)CCCC[C@@H]1SC[C@@H]2NC(=O)N[C@@H]21)[C@@H](C)O)C(=O)N[C@H](C(=O)N[C@H](C(=O)N1CCC[C@H]1C(=O)N[C@@H](CC(C)C)C(=O)N[C@@H](CCCNC(=N)N)C(=O)N[C@H](C(=O)N[C@H](C(=O)N[C@@H](CCC(=O)O)C(=O)N[C@@H](CC(N)=O)C(=O)N[C@@H](CC(N)=O)C(=O)N[C@@H](Cc1ccc(O)cc1)C(=O)O)[C@@H](C)O)[C@@H](C)O)[C@@H](C)CC)[C@@H](C)CC [ephrin B1 294–312] (Biotin-AGTEPSDIIIPLRTTENNY-OH; C-terminus assumed)
3,in the micromolar range,CC[C@H](C)[C@H](NC(=O)[C@@H](NC(=O)[C@H](CC(=O)O)NC(=O)[C@H](CO)NC(=O)[C@@H]1CCCN1C(=O)[C@H](CCC(=O)O)NC(=O)[C@H](CO)NC(=O)CNC(=O)[C@H](CC(N)=O)NC(=O)CCCC[C@@H]1SC[C@@H]2NC(=O)N[C@@H]21)C(C)C)C(=O)N[C@H](C(=O)N1CCC[C@H]1C(=O)N[C@@H](CC(C)C)C(=O)N[C@@H](CCCNC(=N)N)C(=O)N[C@H](C(=O)N[C@@H](C)C(=O)N[C@@H](CC(=O)O)C(=O)N[C@@H](CO)C(=O)N[C@H](C(=O)N[C@@H](Cc1ccccc1)C(=O)O)C(C)C)[C@@H](C)O)[C@@H](C)CC [ephrin B2 285–302] (Biotin-NGSEPSDVIIPLRTADSVF-OH; C-terminus assumed)
